# Assay results: paper PMC6842385, “Identifying new topoisomerase II poison scaffolds by combining publicly available toxicity data and 2D/3D-based virtual screening” (Journal of Cheminformatics, 2019)
# Tested on: T1, Top2
# T1 construct: gene TOP2A; Top2 used in TopoGEN decatenation assay
# Test: kDNA decatenation assay, agarose gel
# Type: biochemical
# Conditions: kinetoplast DNA 0.2 μg in 20 μl, 5 mM ATP, 10 mM MgCl2, 150 mM NaCl, pH 8.0, 37 °C, 30 min
# Text: kDNA decatenation assay, agarose gel on Top2
IC50 [µM],Compound,IC50 (positive control) [µM]
> 100,"CCN(CC)CCNc1ccc2ncn3c4c(OC)ccc(OC)c4c(=O)c1c23 [compound 660839, NSC660839]",–
12.1,"COc1cccc2c(N)c3cccc(C(=O)NCCN(C)C)c3nc12 [compound 691240, NSC691240]",–

# The next lines start with the compound.
Compound,IC50 [µM],IC50 (positive control) [µM]
"O=C1c2c(O)ccc(O)c2C(=O)c2c(NCCNCCO)ccc(NCCNCCO)c21 [compound 301739, mitoxantrone]",–,3.3
"CCN(CC)CCNc1ccc2nc(C)n3c4ccc(O)cc4c(=O)c1c23 [compound 637992, NSC637992]",3.3,–
"CCN(CC)CCNc1ccc(C)c2sc3ccc(O)cc3c(=O)c12 [compound 317921, NSC317921]",7.5,–
